{"source": "patent US8389484B2", "about": "“Methods for targeting RNA molecules” (priority 1999, dated 2013)", "key": {"[1]": {"system": "1674U-allele of endogenous RPA70 mRNA", "assay": "Oligonucleotide-directed cleavage of endogenous RPA70 mRNA in HeLa cell extracts (Northern blot)", "format": "biochemical, human", "conditions": "for cleavage of matched allele versus singly mismatched allele: HeLa (1674U) versus Calu-1 (1674C) extracts", "protocol": "(§1) FIG. 4. Northern blot analysis of oligonucleotide-directed cleavage of endogenous RPA70 mRNA in human cell extracts. The extracts were prepared from HeLa and Calu-1 cells that express only the 1674U- or the 1674 C-allele of the RPA70 mRNA, respectively. In addition to PS-oligos 1, 2, 3, and 6 as described in FIG. 3, oligo 7 (5′ […] 3′; SEQ ID NO:1) was used in the assay as a non-allele-specific control oligo that targets nucleotides 2230-2249 of the 3′-UTR of RPA70 mRNA. a, Targeting the 1674U/C polymorphic site by oligos 1 and 2. b, Targeting the site of different allelic structures around nucleotide 1656 by oligos 3 and 6. Reactions were done in duplicates. The averaged data points of the duplicates are plotted with standard deviations as error bars, and are shown below the corresponding Northern blots. Intact RPA70 mRNA levels were normalized to GAPDH levels and expressed as a percentage of no-oligo control for each experiment.\nOligonucleotide-directed Cleavage of Endogenous RPA70 mRNA in Human Cell Extracts. Human tumor cell lines HeLa and Calu-1 (American Type Culture collection) were genotyped for SNPs in RPA70 cDNA by RFLP analysis and by sequencing. […] HeLa cells were cultured in monolayers in minimum essential medium (Gibco BRL), and Calu-1 cells were cultured in monolayers in McCoy's 5A medium (Sigma). Both media were supplemented with 10% heat inactivated fetal bovine serum (JRH Biosciences), 100 units/mL penicillin-100 μg/mL streptomycin (Gibco BRL), and 2 mM L-glutamine (Gibco BRL). Both cell lines were grown under 5% CO2/95% air in a humidified incubator at 37° C. For preparation of cell extracts, the cells were grown to 80-90% confluence, typsinized, and washed twice with the complete medium as specified above and twice with phosphate buffered saline (Gibco BRL). Approximately 5×10^7 Cells were lysed in a 15 mL tissue grinder with a Teflon pestle (Wheaton) in the presence of 1.5 mL lysis buffer (20 mM Tris.HCl, pH 7.5, 420 mM NaCl, 2 mM MgCl2, 0.2 mM EDTA, 1 mM DTT, 0.5 mM phenylmethyl sulfonylfluoride (PMSF), and 25% glycerol). The sodium salt concentration was chosen to facilitate the disruption of the nuclear membrane to release RNase H from nuclei (21). Up to 200 strokes were needed to completely lyse the cells, as checked using a hemacytometer. The cell lysate was centrifuged at 14,000, rpm for 10 min at 4° C., and cell extracts were obtained by transferring supernatant to clean microcentrifuge tubes and freezing immediately at −80° C. Total protein concentration of cell extracts was determined using the Bradford assay (Bio-Rad). For oligodeoxynucleotide-directed cleavage of endogenous mRNA reactions, cell extracts were diluted to a total protein concentration of 3 mg/mL with the lysis buffer. After the addition of a 10× PS-oligo solution to the diluted cell extracts, the reaction mixture was incubated for 40 min at 37° C. The level of intact RPA70 mRNA was determined by total RNA isolation and Northern blot hybridization using procedures described previously (22, 23), and followed by phosphoimager analysis. Northern probes specific for RPA70 mRNA were synthesized by random primed [α-^32P]dCTP-labeling of a cDNA probe corresponding to nucleotides 1519-2080 of human RPA70 mRNA. To account for variability in the amount of total RNA loaded into individual gel wells for Northern analysis, the level of glyceraldehyde 3-phosphate dehydrogenase (GAPDH) mRNA was also measured by first stripping the RPA70 mRNA probe, and then reprobing the same Northern blot with a random primed [α-^32P]dCTP-labeled cDNA probe corresponding to a 600 nucleotide sequence of human GAPDH (Stratagene).\nAllele-specific Cleavage of Endogenous RPA70 mRNA in Human Cell Extracts. We next performed oligo-directed cleavage of the full-length, endogenous RPA70 mRNA in whole cell extracts prepared from two genotyped human cell lines, HeLa (1674U) and Calu-1 (1674C). […]"}, "[2]": {"system": "1674U- and 1674C-alleles of RPA70 mRNA", "assay": "Cell transfection assay (J. P. Basilion, unpublished results)", "format": "cell-based, human", "conditions": "previously shown"}, "[3]": {"system": "U- and C-alleles of the 544-mer fragment of the RPA70-1674U/C mRNA", "assay": "E. coli RNase H digestion assay, oligo-directed cleavage in a purified system", "format": "biochemical, human", "conditions": "for cleavage efficiency, matched allele versus mismatched allele: 544-mer RPA70 mRNA fragments, oligos target the SNP at position 1674; for reduction in the cleavage of both alleles as compared to parent oligo 3: 544-mer U- and C-alleles, E. coli RNase H; for enhancement in allele discrimination versus parent oligo 3: hairpin oligos, under the experimental conditions", "excerpt": "FIG. 3. E. coli RNase H digestion of both alleles of the 544-mer fragment of the RPA70-1674U/C mRNA. a, Nucleotide sequence of the PS-oligos used in the assay. Oligos 1 and 2 (SEQ ID NOs:6 and 7, respectively) target the polymorphic site; the bases opposing the polymorphism in the mRNA are shown in boldface. Oligos 3 and 6 (SEQ ID NOs:8 and 11, respectively) target the site of different allelic structures around nucleotide 1656. The terminal residues of oligos 1, 2, 3, and 6 (SEQ ID NOs:6, 7, 8, and 11, respectively) are labeled according to the positions of the complementary nucleotides in RPA70 mRNA. Oligos 4 and 5 (SEQ ID NOs:9 and 10, respectively) share the same target hybridization sequence as 3 (SEQ ID NO:8), but with additional nucleotides (shown underlined) added to facilitate folding into hairpin structures for intended enhancement in allele discrimination. b, E. coli RNase H digestion patterns of the 5′-^32P-labeled U- and C-alleles hybridized to the oligos in a. Cleavage sites were confirmed by running on the same gel RNase T1 digestion ladders for the two alleles (not shown): they are centered at position 1674 for oligos 1 and 2 (SEQ ID NOs:6 and 7), 1650 for oligos 3-5 (SEQ ID NOs:8-10), and 1654 for oligo 6 (SEQ ID NO:11). c, Comparison of percent cleavages of the U- and C-alleles calculated from b. Oligo-dependent-cleavage bands were integrated as a percentage of total RNA in each lane with the overlapping background-cleavage bands subtracted. Variations in sample loading to each lane were internally corrected by measuring percent cleavage instead of absolute band intensity.\nE. coli RNase H Digestion Assay. Phosphorothioate oligodeoxyribonucleotides (PS-oligos) were employed in our studies because of their enhanced stability against nucleases (20). PS-oligos were chemically synthesized and desalted on C-18 cartridges by Synthetic Genetics. One, pmol of 5′-^32P-labeled mRNA was renatured in 12 μL RNase H buffer (20 mM Tris.HCl, pH 7.5, 10 mM KCl, 5 mM MgCl2, 0.1 mM dithiothreitol (DTT), 5% glycerol, and 10 μg phenol-extracted glycogen) by heating for 1 min at 85° C., then cooling for 5 min at room temperature followed by 10 min at 37° C. E. coli RNase H (0.6 units, Pharmacia) was then added to the renatured mRNA and incubated for 5 min at 37° C. PS-oligos (5 pmol in RNase H buffer) were subsequently added, and the reaction mixture (15 μL total) incubated for 20 min at 37° C. The digestion products were fractionated on a 4% denaturing polyacrylamide gel, and the cleavage patterns visualized by autoradiography. RNA levels were quantified using a phosphoimager (Fujifilm Model FLA-2000).\nAllele-specific Cleavage of RPA70 mRNA in a Purified System. We first used an in vitro assay with E. coli RNase H and the in vitro transcribed 544-mer RPA70 mRNA fragments to examine the efficiency and allele specificity of structure-based targeting as compared to directly targeting the 1674U/C polymorphism. […] SNP-targeting oligos 1 and 2 were previously optimized for allele discrimination in a cell transfection assay (J. P. Basilion, unpublished results). Each of the SNP-targeting oligos is perfectly matched only with one of the two alleles; it is singly mismatched with the other allele. Single base mismatches formed between the SNP-targeting oligos and their respective non-targeting alleles contribute to the allele discrimination observed previously. Structure-targeting oligos 3 and 6 match perfectly with both alleles, and were designed to hybridize maximally with the single-stranded 1656 region of the U-allele, while avoiding the 1664 region which is slightly accessible in both alleles (FIG. 1b). Four and six additional nucleotides were added to the 5′-end of oligo 3 to produce oligos 4 and 5, respectively, to facilitate folding into hairpin structures for enhanced allele discrimination (27)."}, "[4]": {"system": "1674C-allele of endogenous RPA70 mRNA", "assay": "Oligonucleotide-directed cleavage of endogenous RPA70 mRNA in Calu-1 cell extracts (Northern blot)", "format": "biochemical, human", "conditions": "300 nM oligo, Calu-1 (1674C) extracts", "protocol": "as §1\nOligonucleotide-directed Cleavage of Endogenous RPA70 mRNA in Human Cell Extracts. […] Total protein concentration of cell extracts was determined using the Bradford assay (Bio-Rad). […] The level of intact RPA70 mRNA was determined by total RNA isolation and Northern blot hybridization using procedures described previously (22, 23), and followed by phosphoimager analysis. […]"}}, "note": "In the oligonucleotide strings, read from the 5' end, every base follows the letter of its sugar. An asterisk marks phosphorothioate; unmarked linkages are phosphodiester. Other units and linkages are bracketed, terminal groups are in braces. A string of capitals states the bases alone. d = 2'-deoxy (DNA)"}
{"substance": "5′ TGGTCTGCAGTTAGGGTCAG 3′ (phosphorothioate backbone, further chemistry not given here) [Oligo 7]", "values": [{"measurement": "response of the two cell types to the control oligo", "setting": "[1]; HeLa versus Calu-1 extracts, 100 to 600 nM", "value": "responded similarly"}, {"measurement": "targeting efficiency on the 1674U- and 1674C-alleles", "setting": "[2]", "value": "equally high efficiency"}]}
{"substance": "Oligo 1: Phosphorothioate oligodeoxyribonucleotide 20-mer (SEQ ID NO:6) targeting the RPA70 1674U/C polymorphic site, U-allele specific (dT*dA*dG*dC*dT*dT*dC*dA*dG*dC*dA*dG*dA*dC*dT*dC*dC*dT*dG*dG)", "values": [{"measurement": "cleavage efficiency, matched allele versus mismatched allele", "setting": "[3]", "value": "greater for their respective matched alleles than for the mismatched alleles"}, {"measurement": "extent of cleavage of the matched allele (U-allele)", "setting": "[1]; 300 nM oligo, HeLa (1674U) extracts", "value": "the majority of the matched allele remained uncleaved"}, {"measurement": "cleavage of matched allele versus singly mismatched allele", "setting": "[1]; 300 nM oligo", "value": "equally or slightly more cleaved than the singly mismatched allele"}]}
{"substance": "Oligo 2: Phosphorothioate oligodeoxyribonucleotide 18-mer (SEQ ID NO:7) targeting the RPA70 1674U/C polymorphic site, C-allele specific (dG*dC*dT*dT*dC*dA*dG*dC*dG*dG*dA*dC*dT*dC*dC*dT*dG*dG)", "values": [{"measurement": "cleavage efficiency, matched allele versus mismatched allele", "setting": "[3]", "value": "greater for their respective matched alleles than for the mismatched alleles"}, {"measurement": "cleavage of matched allele versus singly mismatched allele", "setting": "[1]; 300 nM oligo", "value": "equally or slightly more cleaved than the singly mismatched allele"}, {"measurement": "extent of cleavage of the matched allele (C-allele)", "setting": "[4]", "value": "the majority of the matched allele remained uncleaved"}]}
{"substance": "Oligo 3: Phosphorothioate oligodeoxyribonucleotide 20-mer (SEQ ID NO:8) targeting the site of different allelic structures around nucleotide 1656 of RPA70 mRNA (dC*dA*dA*dG*dT*dC*dA*dC*dC*dC*dA*dC*dT*dG*dA*dT*dT*dC*dT*dC)", "values": [{"measurement": "U-allele remaining uncleaved", "setting": "[1]; 300 nM oligo, HeLa (1674U) extracts, intact mRNA normalized to GAPDH, % of no-oligo control", "value": 15, "unit": "%"}, {"measurement": "allele discrimination relative to that obtained by directly targeting the polymorphism with 20-mer 1", "setting": "[1]; HeLa versus Calu-1 extracts, percentage of intact mRNA evaluated, 100, 300 and 600 nM", "value": "two- to sixfold"}, {"measurement": "non-target C-allele intact", "setting": "[4]; intact mRNA normalized to GAPDH, % of no-oligo control", "value": "more than 90%"}]}
{"substance": "Oligo 4: PS-oligo (SEQ ID NO:9), oligo 3 with four additional 5′-end nucleotides to facilitate folding into a hairpin structure (GAATCAAGTCACCCACTGATTCTC; all phosphorothioate, sugars by position and methylation of C not given here)", "values": [{"measurement": "reduction in the cleavage of both alleles as compared to parent oligo 3", "setting": "[3]", "value": 23, "unit": "%"}, {"measurement": "enhancement in allele discrimination versus parent oligo 3", "setting": "[3]", "value": "no enhancement in allele discrimination"}]}
{"substance": "Oligo 5: PS-oligo (SEQ ID NO:10), oligo 3 with six additional 5′-end nucleotides to facilitate folding into a hairpin structure (GAGAATCAAGTCACCCACTGATTCTC; all phosphorothioate, sugars by position and methylation of C not given here)", "values": [{"measurement": "reduction in the cleavage of both alleles as compared to parent oligo 3", "setting": "[3]", "value": 36, "unit": "%"}, {"measurement": "enhancement in allele discrimination versus parent oligo 3", "setting": "[3]", "value": "no enhancement in allele discrimination"}]}
{"substance": "Oligo 6: Phosphorothioate oligodeoxyribonucleotide 15-mer (SEQ ID NO:11) targeting the site of different allelic structures around nucleotide 1656 of RPA70 mRNA (dC*dA*dA*dG*dT*dC*dA*dC*dC*dC*dA*dC*dT*dG*dA)", "values": [{"measurement": "allele discrimination compared with the other oligos", "setting": "[1]; HeLa versus Calu-1 extracts, all three oligo concentrations (100, 300, 600 nM)", "value": "better allele discrimination than the SNP-targeting oligos 1 and 2"}]}
